Several values for one entry are separate records, joined by “and”; a condition that tells them apart may be missing. Equal values may be shown once. Activity calls are given as the source filed them.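 How the source made its calls: active means compounds giving half or more protection of infected cells from virus-caused growth loss, again on retest; inactive means the rest.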
Test system: CEM cells HIV-1 protection, formazan growth assay
Assay: NCI AIDS Antiviral Assay
Conditions: for IC50: measured here: growth of uninfected CEM cells
How it was run: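 Five concentrations of each compound were applied to infected and uninfected human CEM cells. Protection from HIV-1 was judged from growth measured with a soluble formazan assay.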

SMILES | EC50 [µM] | IC50 | outcome
CCOC(=O)Cn1c(=O)n(C)c(=O)c2[nH]cnc21 | > 1000 | > 1000 µM | –
Cn1cc(N)cc1C(=O)Nc1cc(C(=O)Nc2cc(S(=O)(=O)O)c3cc(S(=O)(=O)O)cc(S(=O)(=O)O)c3c2)n(C)c1 | 53.7 | 339 µM | –
NC(=O)c1cccc(NC=O)c1 | > 1510 | 1290 µM | –
OC1C2C=CCC1CCC2 (stereo not drawn) | – | – | inactive
C1OC1[C@@H]1CC[C@@H]([C@@H]2CC[C@@H]([C@H]3CO3)O2)O1 (stereo partly drawn) | – | 39.8 µM | inactive
CCOP(=O)(OCC)C(N)C(C)C (stereo not drawn) | > 513 | > 513 µM | –
COC(=O)C1CCN(C(=O)OC(C)(C)C)CC1 | > 200 | > 200 µM | –
[N-]=[N+]=NC1OC(=O)C(Cl)=C1N=P(c1ccccc1)(c1ccccc1)c1ccccc1 (stereo not drawn) | > 69.2 | 7.94 µM | –
CCOP(=O)(CN1CCNCCN(CP(=O)(OCC)OCC)CC1)OCC | > 100 | > 100 µM | –
Cc1c2ccccc2c(CSCCC(N)C(=O)O)c2ccccc12 (stereo not drawn) | > 200 | > 200 µM | –
O=c1cc(-c2ccc(Cl)cc2)oc2cc(OCCCOc3ccc4c(=O)cc(-c5ccc(Cl)cc5)oc4c3)ccc12 | > 0.646 | > 0.646 µM | –
O=c1c2c(sc3ccccc13)NCN(CCc1ccccc1)C2 | 17.4 | 40.7 µM | –
O=S(=O)(/C=C/c1ccc(Cl)cc1Cl)Cc1ccccc1CS(=O)(=O)/C=C/c1ccc(Cl)cc1Cl | > 12.6 | > 12.6 µM | –
COC1C2C=CC(C2)[C@H]1[N+](=O)[O-] (stereo partly drawn) | – | – | inactive
CN(CCN1C(=O)c2cccc3cc(N)cc(c23)C1=O)CCN1C(=O)c2cccc3cc(N)cc(c23)C1=O | > 21.9 | 0.155 µM | –
C=CC(C)(C)N1c2ccccc2[C@]2(O)C[C@@H]3C(=O)N4/C=C\C(C)(C)c5[nH]c6ccccc6c5/C=C\4C(=O)N3[C@H]12 | – | – | inactive
C[C@H]1[C@H](C)CC[C@]2(C(=O)O)CCC3(COC(=O)/C=C/c4ccc(O)cc4)C(=CCC4[C@@]5(C)CC[C@H](O)C(C)(C)C5CC[C@]43C)[C@H]12 (stereo partly drawn) | > 11.5 | 5.37 µM | –
Cc1cc(C)c(COC(=O)NS(=O)(=O)Nc2ccccc2)c(C)c1 | > 200 | 43.7 µM | –
C#Cc1cccc(NC(=O)/C=C\C(=O)O)c1 | > 832 | 537 µM | –
C[C@@H]1C(=O)O[C@@H]2C[C@@]1(C)[C@@H]1C(=O)C3(O)OC14C2(C)OC(=O)[C@@]4(O)CCC1C3C(O)C=C2CC=CC(=O)[C@@]21C (stereo partly drawn) | > 200 | 20 µM | –
CCOC(=O)/C(O)=C(/C=N\C(=S)Nc1ccccc1Cl)C(=O)OCC | > 200 | > 200 µM | –
CC12CCCC(C(=O)O)(C1)[C@H](C(C)(C)C(=O)O)CC2 (stereo partly drawn) | > 200 | > 200 µM | –
N#Cc1ccccc1Nc1ccccc1S | > 16.6 | > 16.6 µM | –

SMILES | EC50 [µM] | IC50 | outcome
NC(=O)CCCC(NCc1c2ccccc2nc2ccccc12)C(=O)O (stereo not drawn) | – | – | inactive
NC(C(F)(F)F)(C(F)(F)F)P(=O)(Cc1ccccc1)Cc1ccccc1 | > 200 | 145 µM | –
Nc1ccc2c(c1)[O][Sn]([c]1ccccc1)([c]1ccccc1)[O]C2=O | – | – | inactive
Cc1ccccc1NC(=O)C(=O)C1CN(c2ccccc2)N=C1N (stereo not drawn) | > 209 | > 209 µM | –
CC1=C/C(=C(/c2cccc(S(=O)(=O)O)c2)c2cc(C)c(O)c(C(=O)O)c2)C=C(C(=O)O)C1=O | – | – | inactive
COc1ccc2[nH]c3c(C)c4ccnc(NCCCN(C)CCCNc5ccc6ncn7c8ccccc8c(=O)c5c67)c4c(C)c3c2c1 | > 0.0251 | 0.00794 µM | –
Nc1ncnc2ccc(Sc3ccc4ncnc(N)c4c3)cc12 | > 100 | > 100 µM | –
C=C1C2CCC3(CCC4C5(C)CCCC4(CN(CCO)C5)C3C2)C1O (stereo not drawn) | – | – | inactive
Cn1c(=O)sc2cc(C(=S)N3CCOCC3)ccc21 | > 141 | 64.6 µM | –
CC/C(=N/O)c1ccc2[nH]c3c(C)cc([N+](=O)[O-])c(C)c3c2c1 | > 12 | 7.41 µM | –
Cn1c(N)c(N=Nc2ccc(S(=O)(=O)Nc3nccs3)cc2)c(=O)n(C)c1=O | – | – | inactive
O=[N+]([O-])c1ccc2[nH]c(=S)n(/C=C(/c3ccccc3)S(=O)Cc3ccccc3)c2c1 (stereo not drawn) | > 200 | > 200 µM | –
COC(=O)Cc1c2n(c3ccccc13)C(=O)N1c3ccccc3C(CC(=O)OC)C21 (stereo not drawn) | > 200 | > 200 µM | –
Cc1ccc2c(c1-c1ccccc1)C(=O)OC2 | – | – | inactive
N/N=C1\C(=O)N(c2ccc(Cl)cc2Cl)C(=O)C(=O)C1c1nc2ccccc2o1 (stereo not drawn) | – | – | inactive
N#Cc1c2c(cn3c1nc1ccccc13)CCCCC2 | > 151 | > 151 µM | –
Cn1cnc2c1S(=O)(=O)NC(=S)N2 | > 1150 | > 1150 µM | –
SCCCSCCSCCCSCCS | > 17.4 | > 17.4 µM | –
Cc1ccc(S(=O)(=O)Nc2nnc(S(N)(=O)=O)s2)cc1 | > 200 | > 200 µM | –
COC(=O)CCCC(=O)C(=Nc1c(Cl)cccc1Cl)NNc1ccc(Cl)cc1 | > 200 | 35.5 µM | –
CCOc1ccc(NC(=O)C(=O)C2C(=O)Nc3ccccc3S2=O)cc1 (stereo not drawn) | > 50.1 | > 50.1 µM | –
COC(=O)C1c2c(C)cc3n2C(C=CC3)C1C(=O)OC (stereo not drawn) | > 324 | 115 µM | –
Nc1ccn(C2OC(CO)C(F)C2F)c(=O)n1 (stereo not drawn) | > 501 | > 501 µM | –

SMILES | EC50 [µM] | IC50 | outcome
Cc1cc(=O)n2nc(CCl)sc2n1 | > 200 | 9.33 µM | –
CCCCc1ccc(Nc2nc3c(ncn3COCCO)c(=O)[nH]2)cc1 | > 200 | > 200 µM | –
CN(CCc1ccccn1)c1nc(=[N+](C)C)ss1 | – | – | inactive
CC(=O)CC1=C(OC(C)C)C2(OCCO2)C1O (stereo not drawn) | > 200 | > 200 µM | –
CCCCCCCCCCCC(=O)Nc1ccc(SSc2ccc(NC(=O)CCCCCCCCCCC)cc2)cc1 | > 200 | > 200 µM | –
N#C/C=C/c1ccc(Cl)cc1 | > 219 | > 219 µM | –
COc1ccccc1C1C(Cl)C(=O)N1NC(=O)Cc1ccccc1 (stereo not drawn) | > 39.8 | > 39.8 µM | –
Cc1cccc(C)c1NC(=O)CCCC(=O)C1/C(=N/NC(=O)CC#N)CCC/C1=N\NC(=O)CC#N (stereo not drawn) | > 72.4 | > 72.4 µM | –
CN(C)N=Nc1ccc(S(N)(=O)=O)cc1 | > 295 | 37.2 µM | –
CCOC(=O)c1c(-c2ccccc2)c(-c2ccccc2)cn1C | > 200 | 46.8 µM | –
COc1ccc(OCc2ccc3nc(-c4ccccc4)c(Cl)nc3c2)cc1 | > 200 | 20.4 µM | –
CC(C)C(NCc1c2ccccc2[n+](C)c2ccccc12)C(=O)O (stereo not drawn) | – | – | inactive
N#C/C(=C\NC(=S)C(N)=S)C(=O)c1ccc2ccccc2c1 | > 200 | 58.9 µM | –
COc1cc2c(cc1OC)C1Cc3cc(OC)c(OC)cc3C(C2)N1C | > 708 | 52.5 µM and 64.6 µM | –
COC1=C(OC)C(=O)c2cc(C)c(=O)c(C)cc2C1=O | > 13.2 | 3.98 µM | –
O=C1COC(C(=O)c2ccccc2)C(=O)N1 (stereo not drawn) | > 117 | > 117 µM | –
Fc1ccc(Oc2nc3ccccc3nc2-c2ccccc2)cc1 | – | – | inactive
CCN(C(=N)C#N)c1ccccc1 | > 513 | 302 µM | –
Cc1cccc(C(O)c2cccnc2)c1O (stereo not drawn) | > 200 | > 200 µM | –
Cc1cc(C)cc(-n2c3nc(=O)n(C)c(=O)c-3nc3ccccc32)c1 | – | – | inactive
S=C1CC(c2ccccc2)Sc2cc(Cl)ccc2N1 (stereo not drawn) | > 200 | 1.26 µM | –
CC(C)CCC[C@@H](C)C1CCC2[C@@H]3CC=C4C[C@@H](OP(=O)(O)OCCN(C)C)CC[C@]4(C)C3CC[C@@]21C (stereo partly drawn) | > 87.1 | 11.7 µM | –
CCCCCC=C(c1cc(Br)c(OC)c(C(=O)O)c1)c1cc(Br)c(OC)c(C(=O)O)c1 | > 200 | 91.2 µM | –

SMILES | EC50 [µM] | IC50 | outcome
Cc1cc(N(CCC#N)CCC#N)ccc1/C=C1\SC(=S)NC1=O | > 200 | 32.4 µM | –
CCCCCCCCCCCCCCCCOC1OC(CBr)C(O)C(O)C1O (stereo not drawn) | > 8.13 | > 8.13 µM | –
COc1c(OCc2ccccc2)c(OCc2ccccc2)cc(COS(=O)(=O)O)c1-c1c(COS(=O)(=O)O)cc(OCc2ccccc2)c(OCc2ccccc2)c1OC | > 1.58 | > 1.58 µM | –
C1=C(c2ccccc2)Nc2ccccc2N=C1c1ccccc1 | > 200 | > 200 µM | –
CCN(CC)CCOC(=O)c1ccc(N)cc1 | > 200 | > 200 µM | –
O=C1CCc2cc3c(cc21)CC1(Cc2cc4c(cc2C1)CCCC4)C3 | > 200 | 138 µM | –
COc1cc(SSc2cc(OC)cc([N+](=O)[O-])c2N)c(N)c([N+](=O)[O-])c1 | 4.47 | 15.5 µM | –
CC(=O)OCCOCN1C(=O)CC(=O)NC1=O | > 200 | > 200 µM | –
COc1ccc2c(c1)CC[C@@H]1[C@@H]2CC[C@]2(C)/C(=N/OCCN3CCCCC3)CC[C@@H]12 | > 20 | 3.16 µM | –
COC1=CC23C=CC1[C@@H](c1ccccc1)C2=C(C)C(=O)N3C(=O)NC1CCCCC1 (stereo partly drawn) | > 12.9 | > 12.9 µM | –
CN(C)CCNc1ccc(CO)c2sc3ccc(O)cc3c(=O)c12 | > 2 | 0.105 µM | –
COC(=O)[C@H](Cc1ccccc1)NC(=O)N(CCNCCNC(=O)OC(C)(C)C)c1ccccc1 | > 200 | > 100 µM | –
CC(=O)O[C@H]1CCC2[C@@H]3CC[C@]4(C)CC(=O)C=C[C@]4(C)C3CC[C@@]21C (stereo partly drawn) | – | – | inactive
N#CCCN(CCC#N)c1ccc(/C=C2\CC(O)(c3ccccc3)NC2=O)cc1 (stereo not drawn) | > 7.08 | > 7.08 µM | –
CN(C)NC1=NS(=O)(=O)c2cc3c(=O)n(C)[nH]c3cc2S1 | > 200 | 138 µM | –
CCC1(CC2CCCN(C)C2)c2ccccc2Sc2ccccc21 (stereo not drawn) | > 200 | 11 µM | –
c1ccc(CSCCC(SCc2ccccc2)SCc2ccccc2)cc1 | > 200 | > 200 µM | –
N=c1ccn2c(n1)OC1C(OP(=O)(O)O)C(CO)OC12 (stereo not drawn) | > 200 | 0.437 µM | –
O=C1N/C(=C\c2ccccc2)C(=O)N1CN1CCCC1 | > 200 | 115 µM | –
O=P1(c2ccccc2)c2ccccc2-c2ccccc21 | > 200 | 102 µM | –
